Experimental findings from paper PMC4378371, “Subunit disassembly and inhibition of TNFα by a semi-synthetic bicyclic peptide” (Protein Engineering, Design and Selection, 2015) are described below.

Bridge positions count the residues as written; N and C are the ends. Peptide text beside a SMILES is read from it.

The test system of one data set is TNFα trimer. As to conditions: TNFα 10 µM with excess peptide 100 µM, longer pre-incubation.
A further data set relates to L929 cells. The settings on record: at >100 µM compound.
Another data set has as its target TNFα (Homo sapiens, UniProt P01375). As to conditions: L929 assay; unable to fully rescue because of toxicity at higher concentrations.

TNFα, sequence (P01375 77-233 limits assumed): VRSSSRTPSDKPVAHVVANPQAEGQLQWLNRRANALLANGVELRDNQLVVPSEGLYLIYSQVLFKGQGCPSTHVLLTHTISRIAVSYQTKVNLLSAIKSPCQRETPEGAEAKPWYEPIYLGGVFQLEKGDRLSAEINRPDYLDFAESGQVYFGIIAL

Regarding `Cc1c2c(C)c3c(C)c1CSC[C@H](NC(=O)[C@@H]1CCCN1C(=O)[C@@H]1CCCN1C(=O)[C@@H](NC(=O)[C@H](C)N)CSC3)C(=O)N[C@@H](CC(C)C)C(=O)N[C@@H](Cc1c[nH]c3ccccc13)C(=O)N[C@@H](CCC(N)=O)C(=O)N[C@@H](C(C)C)C(=O)N[C@@H](CC(C)C)C(=O)N[C@H](C(=O)NCC(=O)NCC(=O)N[C@@H](CO)C(=O)NCC(=O)N[C@@H](CO)C(=O)NCC(=O)N[C@@H](CO)C(=O)NCC(N)=O)CSC2` [M21h], the “effect on TNFα trimers (MS)” value in the data set with TNFα trimer was “converted quantitatively into dimers and monomers”. For `CC(C)C[C@H](NC(=O)[C@@H]1CSSC[C@@H]2NC(=O)[C@H](CC(C)C)NC(=O)[C@H](CCC(=O)O)NC(=O)[C@@H](NC(=O)[C@H](CCC(=O)O)NC(=O)[C@H](CC(=O)O)NC(=O)[C@@H](N)CC(N)=O)CSSC[C@H](NC(=O)[C@H](C)NC(=O)[C@H](C(C)C)NC(=O)[C@H](CC(N)=O)NC(=O)[C@H](C(C)C)NC2=O)C(=O)N[C@@H]([C@@H](C)O)C(=O)NCC(=O)N1)C(=O)O` [SPD304] (H-NDECELCVNVACTGCL-OH; disulfide 4-12, 7-15), the cell death with L929 cells was found to be 100%. Also, the “maximal rescue of cell viability” value at TNFα is reported as not above 73%.
